Source: patent publication US20250049798A1, “WEE1 PROTEIN KINASE DEGRADATION AGENT AND USE THEREOF” (HANGZHOU GLUBIO PHARMACEUTICAL CO. LTD., priority 2021, published 2025)
Like-named read-outs stand apart in the source and are kept apart here.

Target: HiBiT tagged Wee1 (Homo sapiens, UniProt P30291)
Assay: Wee1 protein degradation assay (HiBiT assay)
Format: cell-based
[1] = engineered HT-1080 cells, 20 hours
[2] = engineered HT-1080 cells, 20 hours, maximum percentage of Wee1 degradation, read-out: HiBiT Wee1: Dmax
[3] = HT-1080, read-out: HiBiT Wee1: Dmax

Sequence of HiBiT tagged Wee1 (P30291 whole entry): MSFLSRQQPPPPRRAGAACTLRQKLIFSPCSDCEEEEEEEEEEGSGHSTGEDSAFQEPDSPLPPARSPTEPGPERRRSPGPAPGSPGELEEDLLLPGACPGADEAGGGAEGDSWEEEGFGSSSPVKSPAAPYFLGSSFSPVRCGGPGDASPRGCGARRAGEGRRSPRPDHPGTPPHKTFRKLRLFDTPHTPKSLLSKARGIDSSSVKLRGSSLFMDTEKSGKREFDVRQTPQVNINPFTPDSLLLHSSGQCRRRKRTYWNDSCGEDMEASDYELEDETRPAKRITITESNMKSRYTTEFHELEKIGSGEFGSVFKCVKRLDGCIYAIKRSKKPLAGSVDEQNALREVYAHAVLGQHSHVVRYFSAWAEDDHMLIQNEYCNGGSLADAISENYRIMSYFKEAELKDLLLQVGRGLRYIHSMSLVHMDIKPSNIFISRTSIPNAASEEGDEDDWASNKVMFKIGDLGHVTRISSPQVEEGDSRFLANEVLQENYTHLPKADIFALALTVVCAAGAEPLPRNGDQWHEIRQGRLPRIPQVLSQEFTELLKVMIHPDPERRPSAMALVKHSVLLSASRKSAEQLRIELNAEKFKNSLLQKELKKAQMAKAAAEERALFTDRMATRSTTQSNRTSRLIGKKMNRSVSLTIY

| DC50 [1] [µM] | Dmax [2] [%] | SMILES | Dmax [3] [%] |
| --- | --- | --- | --- |
| < 0.1 | 50 to 75 | C=CCn1c(=O)c2cnc(Nc3ccc(C4CCN(C5CCN(c6cc7c(cc6F)C(=O)N(C6CCC(=O)NC6=O)C7=O)CC5)CC4)cc3)nc2n1-c1cccc(C(C)(C)O)n1 (centres unmarked) [Compound 44] |  |
| < 0.1 | > 75 | C=CCn1c(=O)c2cnc(Nc3ccc(N4CCN(CC5CCN(c6ccc(NC7CCC(=O)NC7=O)cn6)CC5)CC4)cc3)nc2n1-c1ccc2c(n1)[C@@](O)(CC)CC2 (some centres unmarked) [Compound 136] |  |
| > 1 | < 50 | C=CCn1c(=O)c2cnc(Nc3ccc(N4CCC(CN5CCC(c6cccc7c6n(C)c(=O)n7C6CCC(=O)NC6=O)CC5)CC4)cc3)nc2n1-c1ccc2c(n1)[C@](O)(CC)CC2 (some centres unmarked) [Compound 53] |  |
| < 0.1 | 50 to 75 | C=CCn1c(=O)c2cnc(Nc3ccc(N4CCC(CN5CCN(c6ccc7c(c6)C(=O)N(C6CCC(=O)NC6=O)C7=O)CC5)CC4)cc3)nc2n1-c1cccc(C(C)(C)O)n1 (centres unmarked) [Compound 56] |  |
| < 0.1 | 50 to 75 | C=CCn1c(=O)c2cnc(Nc3ccc(N4CCC(CN5CCN(c6ccc7c(N8CCC(=O)NC8=O)nn(C)c7c6)CC5)CC4)cc3)nc2n1-c1ccc2c(n1)[C@@](C)(O)CC2 [Compound 126] |  |
| < 0.1 | 50 to 75 | C=CCn1c(=O)c2cnc(Nc3ccc(N4CCN(CCCCc5cccc6c5CN(C5CCC(=O)NC5=O)C6=O)CC4)cc3)nc2n1-c1cccc(C(C)(C)O)n1 (centres unmarked) [Compound 50] |  |
| < 0.1 | > 75 | C=CCn1c(=O)c2cnc(Nc3ccc(N4CCC(CN5CCN(c6ccc(NC7CCC(=O)NC7=O)cc6F)CC5)CC4)c(C)c3)nc2n1-c1ccc2c(n1)[C@@](O)(CC)CC2 (some centres unmarked) [Compound 134] |  |
| < 0.1 | > 75 | O=C1CCC(Nc2ccc(N3CCC(CN4CCN(c5ccc(Nc6ncc7c(=O)n(-c8c(Cl)cccc8Cl)c8nccn8c7n6)cc5)CC4)CC3)c(F)c2)C(=O)N1 (centres unmarked) [Compound 83] |  |
| < 0.1 | > 75 | C=CCn1c(=O)c2cnc(Nc3ccc(N4CCN(CC5CCN(c6cc(OC)c(NC7CCC(=O)NC7=O)cc6F)CC5)CC4)cc3)nc2n1-c1ccc2c(n1)[C@@](O)(CC)CC2 (some centres unmarked) [Compound 177] |  |
| < 0.1 | > 75 | C=CCn1c(=O)c2cnc(Nc3ccc(C4CCN(C5CN(c6ccc7c(c6)C(=O)N(C6CCC(=O)NC6=O)C7=O)C5)CC4)cc3)nc2n1-c1cccc(C(C)(C)O)n1 (centres unmarked) [Compound 43] |  |
| < 0.1 | 50 to 75 | C=CCn1c(=O)c2cnc(Nc3ccc(N4CCN(CC5CCN(c6ccc(NC7CCC(=O)NC7=O)nc6)CC5)CC4)cc3)nc2n1-c1ccc2c(n1)[C@@](O)(CC)CC2 (some centres unmarked) [Compound 203] |  |
| < 0.1 | > 75 | C=CCn1c(=O)c2cnc(Nc3ccc(N4CCN(CC5CCN(c6ccc(NC7CCC(=O)NC7=O)cc6F)CC5)CC4)cc3)nc2n1-c1cccc(OC)n1 (centres unmarked) [Compound 205] |  |
| 0.1 to 1 | 50 to 75 | Cc1cc(Nc2ncc3c(n2)N(C)CN(c2c(Cl)cccc2Cl)C3=O)ccc1N1CCC(CN2CC3(C2)CN(c2ccc4c(c2)C(=O)N(C2CCC(=O)NC2=O)C4=O)C3)CC1 (centres unmarked) [Compound 32] |  |
| > 1 | < 50 | CN1CN(c2c(Cl)cccc2Cl)C(=O)c2cnc(Nc3ccc4c(c3)CN(CC3CN(c5ccc6c(c5)C(=O)N(C5CCC(=O)NC5=O)C6=O)C3)CC4)nc21 (centres unmarked) [Compound 20] |  |
| < 0.1 | 50 to 75 | C=CCn1c(=O)c2cnc(Nc3ccc(N4CCN(C(=O)CC5(O)CCN(c6ccc(NC7CCC(=O)NC7=O)cc6F)CC5)CC4)cc3)nc2n1-c1ccc2c(n1)[C@@](O)(CC)CC2 (some centres unmarked) [Compound 159] |  |
| > 1 | < 50 | Cc1cc(Nc2ncc3c(n2)N(C)CN(c2c(Cl)cccc2Cl)C3=O)ccc1N1CCC(CN2CCN(c3ccc4c(c3)CN(C3CCC(=O)NC3=O)C4=O)CC2)CC1 (centres unmarked) [Compound 34] |  |
| > 1 | < 50 | C=CCn1c(=O)c2cnc(Nc3ccc4c(c3)CN(CCCNc3ccc5c(c3)C(=O)N(C3CCC(=O)NC3=O)C5=O)CC4)nc2n1-c1cccc(C(C)(C)O)n1 (centres unmarked) [Compound 23] |  |
| < 0.1 | > 75 | C=CCn1c(=O)c2cnc(Nc3ccc(C4CCN(C5CN(c6ccc(NC7CCC(=O)NC7=O)cc6F)C5)CC4)cc3)nc2n1-c1cccc(C(C)(C)O)n1 (centres unmarked) [Compound 148] |  |
| < 0.1 | > 75 | C=CCn1c(=O)c2cnc(Nc3ccc(N4CCN(CC5CCN(c6c(F)cc(NC7CCC(=O)NC7=O)cc6F)CC5)CC4)cc3)nc2n1-c1ccc2c(n1)[C@@](O)(CC)CC2 (some centres unmarked) [Compound 175] |  |
| > 1 | < 50 | C=CCn1c(=O)c2cnc(Nc3ccc(C4CCN(CC5CCN(c6ccc(N7CCC(=O)NC7=O)cc6)CC5)CC4)cc3)nc2n1-c1cccc(C(C)(C)O)n1 [Compound 146] |  |
| < 0.1 | 50 to 75 | C=CCn1c(=O)c2cnc(Nc3ccc(N4CC(N5CC6(CCN(c7ccc(NC8CCC(=O)NC8=O)cc7F)CC6)C5)C4)cc3)nc2n1-c1ccc2c(n1)[C@@](O)(CC)CC2 (some centres unmarked) [Compound 172] |  |

| DC50 [1] [µM] | Dmax [2] [%] | SMILES | Dmax [3] [%] |
| --- | --- | --- | --- |
| < 0.1 | > 75 | C=CCn1c(=O)c2cnc(Nc3ccc(N4CCN(C5CC6(C5)CN(c5ccc7c(N8CCC(=O)NC8=O)nn(C)c7c5)C6)CC4)cc3)nc2n1-c1ccc2c(n1)[C@@](O)(CC)CC2 [Compound 170] |  |
| < 0.1 | > 75 | C=CCn1c(=O)c2cnc(Nc3ccc(N4CCN(C5CCN(c6ccc(NC7CCC(=O)NC7=O)cc6F)CC5)[C@H](C)C4)cc3)nc2n1-c1ccc2c(n1)[C@@](O)(CC)CC2 (some centres unmarked) [Compound 186] |  |
| < 0.1 | 50 to 75 | C=CCn1c(=O)c2cnc(Nc3ccc(N4CCC(N(C)C5CCN(c6cccc7c6n(C)c(=O)n7C6CCC(=O)NC6=O)CC5)CC4)cc3)nc2n1-c1cccc(C(C)(C)O)n1 (centres unmarked) [Compound 98] |  |
| < 0.1 | 50 to 75 | C=CCn1c(=O)c2cnc(Nc3ccc(N4CCN(CC5CCN(c6ccc7c(c6)CN(C6CCC(=O)NC6=O)C7=O)CC5)CC4)cc3)nc2n1-c1cccc(C(C)(C)O)n1 (centres unmarked) [Compound 25] |  |
| < 0.1 | 50 to 75 | C=CCn1c(=O)c2cnc(Nc3ccc(N4CCN(CC5CCN(c6cccc7c(N8CCC(=O)NC8=O)nn(C)c67)CC5)CC4)cc3)nc2n1-c1ccc2c(n1)[C@@](O)(CC)CC2 [Compound 124] |  |
| < 0.1 | > 75 | C=CCn1c(=O)c2cnc(Nc3ccc(N4CCN(CC5CCN(c6ccc(NC7CCC(=O)NC7=O)cc6F)CC5)CC4)c(C)c3)nc2n1-c1ccc2c(n1)[C@@](O)(CC)CC2 (some centres unmarked) [Compound 128] |  |
| < 0.1 | > 75 | C=CCn1c(=O)c2cnc(Nc3ccc(N4CCN(C[C@@H]5CCN(c6ccc(NC7CCC(=O)NC7=O)cc6F)C5)CC4)cc3)nc2n1-c1cccc(C(C)(C)O)n1 (some centres unmarked) [Compound 139] |  |
| < 0.1 | 50 to 75 | O=C1CCC(N2C(=O)c3ccc(N4CC(CN5CCC(c6ccc(Nc7ncc8c(=O)n(-c9c(Cl)cccc9Cl)c9nccn9c8n7)cc6)CC5)C4)cc3C2=O)C(=O)N1 (centres unmarked) [Compound 13] |  |
| < 0.1 | > 75 | C=CCn1c(=O)c2cnc(Nc3ccc(N4CCN(CC5CCN(c6ccc(NC7CCC(=O)NC7=O)cc6F)CC5)CC4)cc3)nc2n1-c1ccc2c(n1)[C@](C)(O)CC2 (some centres unmarked) [Compound 112] |  |
| > 1 | < 50 | COc1ccc(C(=O)N2CCC(CN3CCN(Cc4ccc(Nc5ncc6c(=O)n(-c7c(Cl)cccc7Cl)c7nccn7c6n5)cc4)CC3)CC2)cc1N1CCC(=O)NC1=O [Compound 58] |  |
| < 0.1 | > 75 | C=CCn1c(=O)c2cnc(Nc3ccc(N4CCN(CC5CCN(c6ncc(NC7CCC(=O)NC7=O)cc6F)CC5)CC4)nc3)nc2n1-c1ccc2c(n1)[C@@](O)(CC)CC2 (some centres unmarked) [Compound 195] |  |
| < 0.1 | 50 to 75 | C=CCn1c(=O)c2cnc(Nc3ccc(N4CCN(CC5CCN(c6ccc7c(N8CCC(=O)NC8=O)nn(C)c7c6)CC5)CC4)c(C)c3)nc2n1-c1ccc2c(n1)[C@@](C)(O)CC2 [Compound 138] |  |
| > 1 | < 50 | Cc1cc(Nc2ncc3c(n2)N(C)CN(c2c(Cl)cccc2Cl)C3=O)ccc1C1CCN(CC2CCN(c3cccc4c3C(=O)N(C3CCC(=O)NC3=O)C4=O)CC2)CC1 (centres unmarked) [Compound 19] |  |
| < 0.1 | 50 to 75 | C=CCn1c(=O)c2cnc(Nc3ccc(C4CCN(C5CCN(c6ccc7c(c6)C(=O)N(C6CCC(=O)NC6=O)C7=O)CC5)CC4)cc3)nc2n1-c1ccc2c(n1)[C@@](O)(CC)CC2 (some centres unmarked) [Compound 75] |  |
| < 0.1 | > 75 | C=CCn1c(=O)c2cnc(Nc3ccc(N4CCN(CCCc5ccc6c(c5)C(=O)N(C5CCC(=O)NC5=O)C6=O)CC4)cc3)nc2n1-c1cccc(C(C)(C)O)n1 (centres unmarked) [Compound 45] |  |
| < 0.1 | 50 to 75 | C=CCn1c(=O)c2cnc(Nc3ccc(N4CCN(CCOc5ccc6c(c5)C(=O)N(C5CCC(=O)NC5=O)C6=O)CC4)cc3)nc2n1-c1cccc(C(C)(C)O)n1 (centres unmarked) [Compound 63] |  |
| < 0.1 | > 75 | C=CCn1c(=O)c2cnc(Nc3ccc(N4CCN(CC5CCN(c6ccc(NC7CCC(=O)NC7=O)cc6F)CC5)CC4)cc3)nc2n1-c1ccc2c(n1)[C@](C)(O)CCC2 (single isomer, unassigned) [Compound 190] |  |
| < 0.1 | > 75 | C=CCn1c(=O)c2cnc(Nc3ccc(N4CCN(C5CC6(CCN(c7ccc(NC8CCC(=O)NC8=O)cc7F)CC6)C5)CC4)cc3)nc2n1-c1ccc2c(n1)[C@@](O)(CC)CC2 (some centres unmarked) [Compound 165] |  |
| < 0.1 | > 75 | C=CCn1c(=O)c2cnc(Nc3ccc(N4CCN(CC5CN(c6ccc(NC7CCC(=O)NC7=O)cc6F)C5)CC4)cc3)nc2n1-c1cccc(C(C)(C)O)n1 (centres unmarked) [Compound 122] |  |
| < 0.1 | > 75 | C=CCn1c(=O)c2cnc(Nc3ccc(N4CCC(CN5CCN(c6cc7c(cc6F)c(N6CCC(=O)NC6=O)nn7C)CC5)CC4)cc3)nc2n1-c1ccc2c(n1)[C@@](O)(CC)CC2 [Compound 201] |  |

| SMILES | DC50 [1] [µM] | Dmax [2] [%] | Dmax [3] [%] |
| --- | --- | --- | --- |
| C=CCn1c(=O)c2cnc(Nc3ccc4c(c3)CN(CCCCNc3ccc5c(c3)C(=O)N(C3CCC(=O)NC3=O)C5=O)CC4)nc2n1-c1cccc(C(C)(C)O)n1 (centres unmarked) [Compound 24] | > 1 |  | < 50 |
| C=CCn1c(=O)c2cnc(Nc3ccc4c(c3)CN(CCCCCCNc3ccc5c(c3)C(=O)N(C3CCC(=O)NC3=O)C5=O)CC4)nc2n1-c1cccc(C(C)(C)O)n1 (centres unmarked) [Compound 22] | > 1 |  | < 50 |
